Experimental findings from ChEMBL document CHEMBL4725437, “P450s under Restriction (PURE) Screen Using HepaRG and Primary Human Hepatocytes for Discovery of Novel HBV Antivirals” (ACS Med Chem Lett, 2020) are described below.

In general, inhibition refers to how much of the control response was suppressed.

The target of data set [1] is T1, CYP3A4 (Homo sapiens, UniProt P08684). The data set is described as follows: Inhibition of CYP3A4 in HBV-infected human HepaRG cells at 10 mM using luciferin-IPA as substrate treated for 1 hr on day 5 post-infection followed by removal of media and supplemented with fresh media and further incubated for 3 days then followed by treatment for 1 hr on day 8 post-infection followed by removal of media and supplemented with fresh media and further incubated for 3 days and measured on day 11 post-infection by P450-Glo chemiluminescent assay relative to control. As to conditions: probe luciferin-IPA; call rule not given here. The data set is classed as ADME, tissue-based.

In data set [2] the target is Cytochrome P450 3A4 (Homo sapiens, UniProt P08684). Kind of data set: Inhibition of CYP3A4 in HBV-infected human primary hepatocytes at 0.2 to 20 mM using luciferin-IPA as substrate treated for 1 hr on day 5 post-infection followed by removal of media and supplemented with fresh media and further incubated for 3 days then followed by treatment for 1 hr on day 8 post-infection followed by removal of media and supplemented with fresh media and further incubated for 3 days and measured on day 11 post-infection by P450-Glo chemiluminescent assay. The data set is classed as ADME, tissue-based, Primary hepatocyte. As to conditions: 20000 µM, dose 0.2-20 mM.

Data set [3] addresses T2, Cytochrome P450 1A2 (Homo sapiens, UniProt P05177).
T2 sequence (P05177 whole entry): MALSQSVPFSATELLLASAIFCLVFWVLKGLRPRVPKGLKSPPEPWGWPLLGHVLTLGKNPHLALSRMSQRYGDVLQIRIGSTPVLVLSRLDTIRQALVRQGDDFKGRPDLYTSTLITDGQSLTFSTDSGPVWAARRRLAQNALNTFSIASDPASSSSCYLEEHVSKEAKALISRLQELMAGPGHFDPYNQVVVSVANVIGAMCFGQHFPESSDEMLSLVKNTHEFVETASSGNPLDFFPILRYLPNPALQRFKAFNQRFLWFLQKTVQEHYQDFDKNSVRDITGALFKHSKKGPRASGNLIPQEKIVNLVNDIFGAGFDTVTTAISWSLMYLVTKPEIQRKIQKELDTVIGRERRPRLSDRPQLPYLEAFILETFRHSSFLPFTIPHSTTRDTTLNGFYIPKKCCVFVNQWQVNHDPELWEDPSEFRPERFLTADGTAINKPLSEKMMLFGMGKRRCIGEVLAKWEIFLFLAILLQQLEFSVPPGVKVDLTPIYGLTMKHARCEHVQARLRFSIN
Kind of data set: Inhibition of CYP1A2 in HBV-infected human HepaRG cells at 0.2 to 20 mM using luciferin-1A2 as substrate treated for 1 hr on day 5 post-infection followed by removal of media and supplemented with fresh media and further incubated for 3 days then followed by treatment for 1 hr on day 8 post-infection followed by removal of media and supplemented with fresh media and further incubated for 3 days and measured on day 11 post-infection by P450-Glo chemiluminescent assay. The data set is classed as ADME, tissue-based. As to conditions: 20000 µM, dose 0.2-20 mM.

For data set [4], the target named is T1, CYP3A4. The data set is described as follows: Inhibition of CYP3A4 in HBV-infected human HepaRG cells at 10 mM using luciferin-IPA as substrate treated for 1 hr on day 5 post-infection followed by removal of media and supplemented with fresh media and further incubated for 3 days then followed by treatment for 1 hr on day 8 post-infection followed by removal of media and supplemented with fresh media and further incubated for 3 days in presence of 50 uM SKF-525A and measured on day 11 post-infection by P450-Glo chemiluminescent assay relative to control. The format is ADME, tissue-based. As to conditions: probe luciferin-IPA, with SKF-525A 50 uM.

Data set [5] concerns the target T3, CYP1A2 (Homo sapiens, UniProt P05177).
T3 sequence (P05177 whole entry): T2 sequence (P05177 whole entry)
Kind of data set: Inhibition of CYP1A2 in HBV-infected human HepaRG cells at 10 mM using luciferin-1A2 as substrate treated for 1 hr on day 5 post-infection followed by removal of media and supplemented with fresh media and further incubated for 3 days then followed by treatment for 1 hr on day 8 post-infection followed by removal of media and supplemented with fresh media and further incubated for 3 days and measured on day 11 post-infection by P450-Glo chemiluminescent assay relative to control. The format is ADME, tissue-based. As to conditions: probe luciferin-1A2.

Data set [6] has as its system Hepatocyte. The data set is described as follows: Cytotoxicity against human primary hepatocytes infected with HBV assessed as reduction in cell viability at 50 uM treated for 1 hr on day 5 post-infection followed by removal of media and supplemented with fresh media and further incubated for 3 days then followed by treatment for 1 hr on day 8 post-infection followed by removal of media and supplemented with fresh media and further incubated for 3 days in presence of 10 mM ABT and measured on day 11 post-infection by Celltiter-Glo assay relative to control. The data set is classed as cell-based.

Data set [7] concerns the target T1, CYP3A4. Kind of data set: Inhibition of CYP3A4 in HBV-infected human HepaRG cells at 50 uM using luciferin-IPA as substrate treated for 1 hr on day 5 post-infection followed by removal of media and supplemented with fresh media and further incubated for 3 days then followed by treatment for 1 hr on day 8 post-infection followed by removal of media and supplemented with fresh media and further incubated for 3 days and measured on day 11 post-infection by P450-Glo chemiluminescent assay relative to control. As to conditions: probe luciferin-IPA. The format is ADME, tissue-based.

In data set [8] the target is T2, Cytochrome P450 1A2. The data set is described as follows: Inhibition of CYP1A2 in HBV-infected human HepaRG cells at 5 to 100 uM using luciferin-1A2 as substrate treated for 1 hr on day 5 post-infection followed by removal of media and supplemented with fresh media and further incubated for 3 days then followed by treatment for 1 hr on day 8 post-infection followed by removal of media and supplemented with fresh media and further incubated for 3 days and measured on day 11 post-infection by P450-Glo chemiluminescent assay. The format is ADME, tissue-based. As to conditions: dose 5-100 µM.

For data set [9], the target named is CYP2C9 (Homo sapiens, UniProt P11712). The data set is described as follows: Inhibition of CYP2C9 in HBV-infected human HepaRG cells at 50 uM using luciferin-H as substrate treated for 1 hr on day 5 post-infection followed by removal of media and supplemented with fresh media and further incubated for 3 days in presence of 10 mM ABT by P450-Glo chemiluminescent assay relative to control. As to conditions: probe luciferin-H, with ABT 10 mM. The data set is classed as ADME, tissue-based.

The subject of data set [10] is HepaRG. Kind of data set: Cytotoxicity against human HepaRG cells infected with HBV assessed as reduction in cell viability at 50 uM treated for 1 hr on day 5 post-infection followed by removal of media and supplemented with fresh media and further incubated for 3 days then followed by treatment for 1 hr on day 8 post-infection followed by removal of media and supplemented with fresh media and further incubated for 3 days in presence of 10 mM ABT and measured on day 11 post-infection by Celltiter-Glo assay. The format is cell-based. A general note: Cellular ATP, detected with luciferase, serves as a proxy for viable cell number.

The test system of data set [11] is HepaRG. Kind of data set: Cytotoxicity against human HepaRG cells infected with HBV assessed as reduction in cell viability at 5 to 100 uM treated for 1 hr on day 5 post-infection followed by removal of media and supplemented with fresh media and further incubated for 3 days then followed by treatment for 1 hr on day 8 post-infection followed by removal of media and supplemented with fresh media and further incubated for 3 days and measured on day 11 post-infection by Celltiter-Glo assay. The format is cell-based. As to conditions: dose 5-100 µM.

Data set [12] concerns the target T1, CYP3A4. Kind of data set: Inhibition of CYP3A4 in HBV-infected human HepaRG cells at 50 uM using luciferin-IPA as substrate treated for 1 hr on day 5 post-infection followed by removal of media and supplemented with fresh media and further incubated for 3 days then followed by treatment for 1 hr on day 8 post-infection followed by removal of media and supplemented with fresh media and further incubated for 3 days in presence of 10 mM ABT and measured on day 11 post-infection by P450-Glo chemiluminescent assay relative to control. The data set is classed as ADME, tissue-based. As to conditions: probe luciferin-IPA, with ABT 10 mM.

T1 sequence (P08684 whole entry): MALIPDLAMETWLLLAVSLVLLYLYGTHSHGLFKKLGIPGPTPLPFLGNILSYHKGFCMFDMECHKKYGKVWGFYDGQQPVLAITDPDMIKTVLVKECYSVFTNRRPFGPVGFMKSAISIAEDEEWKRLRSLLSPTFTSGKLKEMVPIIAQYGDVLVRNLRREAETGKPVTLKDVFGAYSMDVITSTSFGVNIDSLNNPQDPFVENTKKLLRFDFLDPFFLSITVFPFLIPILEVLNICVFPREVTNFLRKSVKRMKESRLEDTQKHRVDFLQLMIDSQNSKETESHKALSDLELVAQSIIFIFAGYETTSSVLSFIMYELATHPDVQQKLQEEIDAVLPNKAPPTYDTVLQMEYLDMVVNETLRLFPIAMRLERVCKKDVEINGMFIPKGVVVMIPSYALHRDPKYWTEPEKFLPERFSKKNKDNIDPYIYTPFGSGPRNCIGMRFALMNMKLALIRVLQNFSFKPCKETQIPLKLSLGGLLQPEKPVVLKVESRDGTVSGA
Sequence of Cytochrome P450 3A4 (P08684 whole entry): as above
Sequence of CYP2C9 (P11712 whole entry): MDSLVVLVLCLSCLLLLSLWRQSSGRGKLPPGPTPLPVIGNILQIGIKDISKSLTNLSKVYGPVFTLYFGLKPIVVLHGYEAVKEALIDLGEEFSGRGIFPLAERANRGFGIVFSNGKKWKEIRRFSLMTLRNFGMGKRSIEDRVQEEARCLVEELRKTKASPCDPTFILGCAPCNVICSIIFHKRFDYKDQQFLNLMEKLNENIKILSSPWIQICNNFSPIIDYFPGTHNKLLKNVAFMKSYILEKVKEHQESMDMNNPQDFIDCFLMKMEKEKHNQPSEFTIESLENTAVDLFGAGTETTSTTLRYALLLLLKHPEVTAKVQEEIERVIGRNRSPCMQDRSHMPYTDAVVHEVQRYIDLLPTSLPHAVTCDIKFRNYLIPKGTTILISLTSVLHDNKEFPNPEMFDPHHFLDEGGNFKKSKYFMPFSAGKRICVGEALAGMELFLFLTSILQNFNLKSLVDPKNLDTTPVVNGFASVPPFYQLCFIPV

With `Nn1nnc2ccccc21`, the inhibition at 1 h, 50 µM in data set [1] worked out at 87.8%. The “inhibition (INH)” value in data set [2] and in data set [3] was “Active” each time. For the same compound, the inhibition at 2 h, 10000 µM in data set [4] is 90.3%. Moreover, the inhibition at 1 h, 10000 µM in data set [5] came out at 91%.
As for `CCCC(C(=O)OCCN(CC)CC)(c1ccccc1)c1ccccc1` [PROADIFEN], the Activity was 10% in [6], “Non-Toxic” in data set [10] and “Non-Toxic” in [11]. Moreover, the inhibition at 1 h, 50 µM worked out at 93% in [7], 36.9% in data set [9] and 90.3% in data set [12]. Further, the “inhibition (INH)” value in data set [8] was “Active”.
